# Results reported in US20170114070A1, “INHIBITORS OF THE WNT SIGNALLING PATHWAYS” (Bayer Pharma Aktiengesellschaft, priority 2014, published 2017).
# Experiments:
# [1] = system: HCT116 FOPFlash (FOP control vector, non-functional TCF elements); assay: Cellular control reporter assay, HCT116 FOP control vector; type: cell-based; details: Homo sapiens, HCT-116; HCT116 stably transfected with FOP control vector; 36 hours incubation; luciferase expression; dilution series from 50 μM
# Description: (§1) In a parallel approach, HCT116 cells were cotransfected with the FOP control vector and pcDNA3. The FOP vector is identical to the TOP construct, but it contains instead of functional TCF elements a randomized, non-functional sequence. For this transfection a stable transfected cell line was generated as well.
# (§2) In preparation of the assay, the two cell lines were plated 24 hours before at 10000 cells per well of a 384 micro titre plate (MTP) in 30 μL growth medium. Selective inhibitory activity for small molecules on the mutated Wnt pathway was determined after parallel incubation of both (TOP and FOP) HCT116 reporter cell lines with a compound dilution series from 50 μM to 15 nM in steps of 3.16-fold dilutions in CAFTY buffer (130 mM NaCl, 5 mM KCl, 20 mM HEPES, 1 mM MgCl2, 5 mM NaHCO3, pH 7.4) containing 2 mM Ca^2+ and 0.01% BSA. The compounds were thereby serially prediluted in 100% DMSO and thereafter in addition 50 fold into the CAFTY compound dilution buffer (described above). From this dilution 10 μL were added to the cells in 30 μL growth medium and incubated for 36 hours at 37° C. and 5% CO2. Thereafter luciferase assay buffer (1:1 mixture of luciferase substrate buffer (20 mM Tricine, 2.67 mM MgSO4, 0.1 mM EDTA, 4 mM DTT, 270 μM Coenzyme A, 470 μM Luciferin, 530 μM ATP, ph adjusted to pH 7.8 with a sufficient volume of 5M NaOH) and Triton buffer (30 mL Triton X-100, 115 mL glycerol, 308 mg Dithiothreitol, 4.45 g Na2HPO4.2H2O, 3.03 g TRIS HCl, ad 1 l H20, pH 7.8) was added as equal volume to the compound solution on the cells to determine luciferase expression as a measure of Wnt signaling activity in a luminometer.
# [2] = system: constitutive active Wnt pathway (HCT116 TOPFlash); assay: Cellular reporter assay, HCT116 Super TopFlash (constitutive active Wnt pathway); type: cell-based; details: Homo sapiens, HCT-116; HCT116 stably transfected with Super TopFlash vector; 36 hours incubation; luciferase expression
# Description: In order to discover and characterize small molecules which inhibit the constitutive active colorectal cancer cell (CRC) Wnt pathway, a cellular reporter assay was employed. The corresponding assay cell was generated by transfection of the colorectal cancer cell line HCT116 (ATCC, #CCL-247) with the Super TopFlash vector (Morin, Science 275, 1997, 1787-1790; Molenaar et al., Cell 86 (3), 1996, 391-399). The HCT116 cell line is cultivated at 37° C. and 5% CO2 in DMEM/F-12 (Life Technologies, #11320-074), supplemented with 2 mM glutamine, 20 mM HEPES, 1.4 mM pyruvate, 0.15% Na-bicarbonate and 10% foetal bovine serum (GIBCO, #10270), this cancer cell line is pathophysiological relevant since it carries a deletion of position S45 in the β-catenin gene, leading to constitutive active Wnt signaling. Stable transfectants were generated by cotransfection with pcDNA3 and selection of stable transfected cells with 1 mg/ml G418.
# as §1, §2
structure (smiles),measurement,setting,value
"Nc1cc(-c2cnc(NC(=O)c3ccc(OC(F)(F)F)c(NC(=O)CN4CCOCC4)c3)cn2)ccn1 [Example 55, N-[5-(2-aminopyridin-4-yl)pyrazin-2-yl]-3-[(morpholin-4-ylacetyl)amino]-4-(trifluoromethoxy)benzamide]",IC50,[1],26.2 µM
same,IC50,[2],17.2 µM
"CN1CCN(CC(=O)Nc2cc(C(=O)Nc3cnc(-c4ccnc(N)c4)cn3)ccc2OC(F)(F)F)CC1 [Example 56, N-[5-(2-aminopyridin-4-yl)pyrazin-2-yl]-3-{[(4-methylpiperazin-1-yl)acetyl]amino}-4-(trifluoromethoxy)benzamide]",IC50,[1],≥ 50 µM
same,IC50,[2],2 µM
"O=C(CN1CCOCC1)Nc1cc(C(=O)Nc2cnc(-c3ccccn3)cn2)ccc1OC(F)(F)F [Example 61, 3-[(morpholin-4-ylacetyl)amino]-N-[5-(pyridin-2-yl)pyrazin-2-yl]-4-(trifluoromethoxy)benzamide]",IC50,[1],≥ 50 µM
same,IC50,[2],≥ 50 µM
"O=C(Nc1cnc(-c2ccccc2)cn1)c1ccc(OC(F)(F)F)c(NC(=O)C2(N3CCOCC3)CC2)c1 [Example 20, 3-({[1-(morpholin-4-yl)cyclopropyl]carbonyl}amino)-N-(5-phenylpyrazin-2-yl)-4-(trifluoromethoxy)benzamide]",IC50,[1],≥ 50 µM
same,IC50,[2],0.0144 µM
"O=C(CN1CCOCC1)Nc1cc(C(=O)Nc2ncc(-c3ccccc3)cn2)ccc1OC1CC1 [Example 34, 4-(cyclopropyloxy)-3-[(morpholin-4-ylacetyl)amino]-N-(5-phenylpyrimidin-2-yl)benzamide]",IC50,[1],≥ 50 µM
same,IC50,[2],12.6 µM
"O=C(CN1CCOCC1)Nc1cc(C(=O)Nc2cnc(-c3cnccn3)cn2)ccc1OC(F)(F)F [Example 57, N-(2,2′-bipyrazin-5-yl)-3-[(morpholin-4-ylacetyl)amino]-4-(trifluoromethoxy)benzamide]",IC50,[1],≥ 50 µM
same,IC50,[2],2.4 µM
"Cc1cccc(-c2cnc(NC(=O)c3ccc(OC(F)(F)F)c(NC(=O)CN4CCOCC4)c3)cn2)c1 [Example 47, N-[5-(3-methylphenyl)pyrazin-2-yl]-3-[(morpholin-4-ylacetyl)amino]-4-(trifluoromethoxy)benzamide]",IC50,[1],4.1 µM
same,IC50,[2],0.24 µM
"O=C(CN1CCOCC1)Nc1cc(C(=O)Nc2cnc(-c3ccccc3F)cn2)ccc1OC(F)(F)F [Example 25, N-[5-(2-fluorophenyl)pyrazin-2-yl]-3-[(morpholin-4-ylacetyl)amino]-4-(trifluoromethoxy)benzamide]",IC50,[1],23.1 µM
same,IC50,[2],4.62 µM
"Nc1ncc(-c2ccc(NC(=O)c3ccc(OC(F)(F)F)c(NC(=O)CN4CCOCC4)c3)nn2)cn1 [Example 13, N-[6-(2-aminopyrimidin-5-yl)pyridazin-3-yl]-3-[(morpholin-4-ylacetyl)amino]-4-(trifluoromethoxy)benzamide]",IC50,[1],≥ 50 µM
same,IC50,[2],0.0672 µM
"CN1CCN(CC(=O)Nc2cc(C(=O)Nc3cnc(-c4cc(F)cc(F)c4)cn3)ccc2OC(F)(F)F)CC1 [Example 43, N-[5-(3,5-difluorophenyl)pyrazin-2-yl]-3-{[(4-methylpiperazin-1-yl)acetyl]amino}-4-(trifluoromethoxy)benzamide]",IC50,[1],27.6 µM
same,IC50,[2],0.155 µM
"CN1CCN(CC(=O)Nc2cc(C(=O)Nc3cnc(-c4cnc(N)cn4)cn3)ccc2OC(F)(F)F)CC1 [Example 60, N-(5′-amino-2,2′-bipyrazin-5-yl)-3-{[(4-methylpiperazin-1-yl)acetyl]amino}-4-(trifluoromethoxy)benzamide]",IC50,[1],≥ 50 µM
same,IC50,[2],4.1 µM
"O=C(CN1CCOCC1)Nc1cc(C(=O)Nc2cnc(-c3cccc(Cl)c3)cn2)ccc1OC(F)(F)F [Example 35, N-[5-(3-chlorophenyl)pyrazin-2-yl]-3-[(morpholin-4-ylacetyl)amino]-4-(trifluoromethoxy)benzamide]",IC50,[1],≥ 5.77 µM
same,IC50,[2],0.116 µM
"O=C(CN1CCOCC1)Nc1cc(NC(=O)c2cnc(-c3ccccc3)cn2)ccc1OC(F)(F)F [Example 6, N-{3-[(morpholin-4-ylacetyl)amino]-4-(trifluoromethoxy)phenyl}-5-phenylpyrazine-2-carboxamide]",IC50,[1],≥ 50 µM
same,IC50,[2],0.834 µM
"O=C(CN1CCOCC1)Nc1cc(C(=O)Nc2cnc(-c3cncnc3)cn2)ccc1OC1CC1 [Example 27, 4-(cyclopropyloxy)-3-[(morpholin-4-ylacetyl)amino]-N-[5-(pyrimidin-5-yl)pyrazin-2-yl]benzamide]",IC50,[1],≥ 50 µM
same,IC50,[2],16.7 µM
"O=C(CN1CCOCC1)Nc1cc(C(=O)Nc2ccc(-c3cccnc3F)nn2)ccc1OC(F)(F)F [Example 17, N-[6-(2-fluoropyridin-3-yl)pyridazin-3-yl]-3-[(morpholin-4-ylacetyl)amino]-4-(trifluoromethoxy)benzamide]",IC50,[1],≥ 50 µM
same,IC50,[2],0.418 µM
